Results: EPA's ToxValDB 9.5
Several values for one entry are separate records, joined by “and”; a condition that tells them apart may be missing. Equal entries are not always repeated.

System: Rattus norvegicus
[1] = reproduction developmental, oral, gavage, M, Crl:CD(SD), generation: P0, P0: General Toxicity: Whole Body: Necropsy Appeared Normal + P0: Nervous: CNS: Latency to Mount
[2] = reproduction developmental, oral, gavage, M, Sprague-Dawley, generation: P0, P0: General Toxicity: Whole Body: Body Weight Change + P0: General Toxicity: Whole Body: Clinical Observations + P0: General Toxicity: Whole…
[3] = short-term, duration: 28 days, oral, gavage, F, Crl:CD(SD), Liver: Liver Weight, Relative + Liver: Liver, Enlarged + Teeth: Incisors, Discolored
[4] = short-term, duration: 28 days, oral, gavage, F, Crl:CD(SD), Whole Body: Dystocia
[5] = short-term, duration: 28 days, oral, gavage, M/F, Crl:CD(SD), Adrenal: Adrenal Cortex Histopathology + Blood: Chloride (CL), Blood + Blood: Globulin (G), Blood + Blood: Potassium (K), Blood + Blood: …
[6] = short-term, duration: 28 days, oral, gavage, M/F, Crl:CD(SD), Whole Body: Body Weight Change + Whole Body: Body Weight, Absolute
[7] = short-term, duration: 28 days, oral, gavage, M, Crl:CD(SD), Teeth: Incisors, Discolored + Teeth: Teeth, Mottled
[8] = subchronic, duration: 90 days, oral, gavage, F, Crl:CD(SD), Blood: Activated Partial Thromboplastin Time (APTT) + Blood: Cholesterol (CHOL), Total + Blood: Fluoride (Plasma) + Blood: Hematocrit (HCT…
[9] = subchronic, duration: 90 days, oral, gavage, F, Crl:CD(SD), Blood: Activated Partial Thromboplastin Time (APTT) + Blood: Hematocrit (HCT) + Blood: Hemoglobin (HGB) + Blood: Red Blood Cell (RBC) + …
[10] = subchronic, duration: 90 days, oral, gavage, F, Crl:CD(SD), Blood: Cholesterol (CHOL), Total + Kidney: Kidney Weight, Absolute + Kidney: Kidney Weight, Relative + Kidney: Kidney Weight, Relative to …
[11] = subchronic, duration: 90 days, oral, gavage, F, Crl:CD(SD), Blood: Fluoride (Plasma), Recovery + Blood: Inorganic Phosphorous (PHOS) + Calcium (CA) + Kidney: Blood Urea Nitrogen (BUN), Blood + Kidney…
[12] = subchronic, duration: 90 days, oral, gavage, F, Crl:CD(SD), General Toxicity: Whole Body: Body Weight Change + General Toxicity: Whole Body: Clinical Observations + General Toxicity: Whole Body: …
[13] = subchronic, duration: 90 days, oral, gavage, F, Crl:CD(SD), Hematologic: Blood: Activated Partial Thromboplastin Time (APTT) + Hematologic: Blood: Hematocrit (HCT) + Hematologic: Blood: Hemoglobin (…
[14] = subchronic, duration: 90 days, oral, gavage, F, Crl:CD(SD), Kidney: Kidney Weight, Absolute + Liver: Liver Histopathology + Liver: Liver Weight, Absolute + Renal: Urinalysis, Unspecified
[15] = subchronic, duration: 90 days, oral, gavage, F, Crl:CD(SD), Other Systems: Eye: Ophthalmology + Other Systems: Nasal Cavity: Nasal Cavity/Tubinates Inflammation, Chronic, Focal/Multifocal + Other …
[16] = subchronic, duration: 90 days, oral, gavage, F, Crl:CD(SD), Pancreas: Pancreas Histopathology
[17] = subchronic, duration: 90 days, oral, gavage, F, Sprague-Dawley, Hematologic: Blood: Activated Partial Thromboplastin Time (APTT) + Hematologic: Blood: Hematocrit (HCT) + Hematologic: Blood: Hemoglobin (…
[18] = subchronic, duration: 90 days, oral, gavage, M, Crl:CD(SD), Blood: Activated Partial Thromboplastin Time (APTT) + Blood: Albumin/Globulin (A/G) Ratio + Blood: Fluoride (Plasma) + Blood: Hematocrit (…
[19] = subchronic, duration: 90 days, oral, gavage, M, Crl:CD(SD), Blood: Activated Partial Thromboplastin Time (APTT) + Blood: Hematocrit (HCT) + Blood: Hemoglobin (HGB) + Blood: Red Blood Cell (RBC) + …
[20] = subchronic, duration: 90 days, oral, gavage, M, Crl:CD(SD), Blood: Fluoride (Plasma), Recovery + Blood: Hematocrit (HCT) + Blood: Hemoglobin (HGB) + Liver: Liver, Biliary Hyperplasia + Liver: Liver, …
[21] = subchronic, duration: 90 days, oral, gavage, M, Crl:CD(SD), Blood: Inorganic Phosphorous (PHOS) + Blood: Potassium (K), Blood + Kidney: Blood Urea Nitrogen (BUN), Blood + Kidney: Kidney Weight, …
[22] = subchronic, duration: 90 days, oral, gavage, M, Crl:CD(SD), Blood: Inorganic Phosphorous (PHOS), Blood + Blood: Potassium (K), Blood + Epididymis: Epididymis Weight, Relative + Kidney: Blood Urea …
[23] = subchronic, duration: 90 days, oral, gavage, M, Crl:CD(SD), Blood: Total Protein (TP), Blood + Kidney: Kidney Histopathology + Kidney: Kidney Weight, Absolute + Liver: Total Bilirubin (TBILI), Blood…
[24] = subchronic, duration: 90 days, oral, gavage, M, Crl:CD(SD), General Toxicity: Whole Body: Body Weight Change + General Toxicity: Whole Body: Clinical Observations + General Toxicity: Whole Body: …
[25] = subchronic, duration: 90 days, oral, gavage, M, Crl:CD(SD), Hematologic: Blood: Activated Partial Thromboplastin Time (APTT) + Hematologic: Blood: Hematocrit (HCT) + Hematologic: Blood: Hemoglobin (…
[26] = subchronic, duration: 90 days, oral, gavage, M, Sprague-Dawley, Hematologic: Blood: Activated Partial Thromboplastin Time (APTT) + Hematologic: Blood: Hematocrit (HCT) + Hematologic: Blood: Hemoglobin (…

- NEL (short-term, duration: 4 weeks, inhalation, F, Crl:CD(SD), Adrenal: Adrenal Gland Weight, Absolute + Adrenal: Adrenal Gland Weight, Absolute, Recovery + Adrenal: Adrenal Gland Weight, Relative + …): 1490 mg/m3
- LEL (short-term, duration: 4 weeks, inhalation, F, Crl:CD(SD), Blood: Hematocrit (HCT) + Blood: Hemoglobin (HGB) + Blood: Red Blood Cell (RBC) + Bone: Decalcification, Trabeculae (4 wk) + Bone: …): 1490 mg/m3
- NEL (short-term, duration: 4 weeks, inhalation, M, Crl:CD(SD), Adrenal: Adrenal Gland Weight, Absolute + Adrenal: Adrenal Gland Weight, Absolute, Recovery + Adrenal: Adrenal Gland Weight, Relative + …): 1490 mg/m3
- LEL (short-term, duration: 4 weeks, inhalation, M, Crl:CD(SD), Bone: Decalcification, Trabeculae (4 wk) + Bone: Decalcification, Trabeculae (8 wk) + Kidney: Total Protein (TP), Urine + Liver: Albumin (A…): 1490 mg/m3
- NEL (short-term, duration: 4 weeks, inhalation, M, Crl:CD(SD), Kidney: Total Protein (TP), Urine + Liver: Albumin (A), Blood + Liver: Liver Weight, Absolute + Liver: Liver Weight, Relative + Liver: Liver…): 149 mg/m3
- LEL [3]: 25 mg/kg-day
- NEL [3]: 5 mg/kg-day
- NEL (short-term, duration: 28 days, oral, gavage, F, Crl:CD(SD), Teeth: Teeth, Mottled): 125 mg/kg-day
- LEL [4]: 225 mg/kg-day
- NEL [4]: 75 mg/kg-day
- LEL [5]: 225 mg/kg-day
- NEL [5]: 75 mg/kg-day
- NEL (short-term, duration: 28 days, oral, gavage, M, Crl:CD(SD), Liver: Liver Weight, Relative + Liver: Liver, Enlarged): 125 mg/kg-day
- LEL [7]: 25 mg/kg-day
- NEL [7]: 5 mg/kg-day
- NEL (subchronic, duration: 90 days, oral, gavage, F, Crl:CD(SD), Adrenal: Adrenal Gland Weight, Absolute + Adrenal: Adrenal Gland Weight, Relative + Blood: Basophils + Blood: Calcium (CA), Blood + Blood: …): 250 mg/kg-day
- LEL [8]: 125 mg/kg-day
- NEL [8]: 25 mg/kg-day
- LEL [9]: 125 mg/kg-day
- NEL [9]: 25 mg/kg-day
- LEL [10]: 25 mg/kg-day
- NEL [10]: 5 mg/kg-day
- LEL [11]: 250 mg/kg-day
- NEL [11]: 125 mg/kg-day
- NEL (subchronic, duration: 90 days, oral, gavage, F, Crl:CD(SD), Blood: Inorganic Phosphorous (PHOS) + Blood: Triglycerides (TRIG) + Calcium (CA) + Kidney: Blood Urea Nitrogen (BUN), Blood + Kidney: …): 250 mg/kg-day
- LEL [14]: 25 mg/kg-day
- NEL [14]: 5 mg/kg-day
- LEL [16]: 250 mg/kg-day
- NEL [16]: 125 mg/kg-day
- NEL (subchronic, duration: 90 days, oral, gavage, M, Crl:CD(SD), Adrenal: Adrenal Gland Weight, Absolute + Adrenal: Adrenal Gland Weight, Relative + Blood: Basophils + Blood: Calcium (CA), Blood + Blood: …): 250 mg/kg-day
- LEL [18]: 25 mg/kg-day
- NEL [18]: 5 mg/kg-day
- LEL [19]: 25 mg/kg-day
- NEL [19]: 5 mg/kg-day
- LEL [20]: 250 mg/kg-day
- NEL [20]: 125 mg/kg-day
- LEL [21]: 125 mg/kg-day
- NEL [21]: 25 mg/kg-day
- LEL [22]: 125 mg/kg-day
- NEL [22]: 25 mg/kg-day
- LEL [23]: 250 mg/kg-day
- NEL [23]: 125 mg/kg-day
Compound: OCCC(F)(F)C(F)(F)C(F)(F)C(F)(F)C(F)(F)C(F)(F)F [2-(Perfluorohexyl)ethanol]
- NOAEL (reproduction developmental, oral, gavage, M/F, Crl:CD(SD), generation: P0, P0: Reproductive: Whole Body: Gestation Index): 25 mg/kg-day
- LOAEL [1]: 225 mg/kg-day
- NOAEL [1]: 75 mg/kg-day
- NOAEL (reproduction developmental, oral, gavage, M, Crl:CD(SD), generation: P0, P0: Nervous: CNS: Latency to Mount): 225 mg/kg-day
- LOAEL (reproduction developmental, oral, gavage, M, Sprague-Dawley, generation: P0, P0: Endocrine: Pituitary: Pituitary Gland Histopathology + P0: Endocrine: Pituitary: Pituitary Gland Weight, Absolute + P0: Endocrine: …): 125 mg/kg-day
- LOAEL [2]: 125 mg/kg-day
- NOAEL [2]: 25 mg/kg-day
- NEL (short-term, duration: 4 weeks, inhalation, F, Crl:CD(SD), Blood: Hematocrit (HCT) + Blood: Hemoglobin (HGB) + Blood: Red Blood Cell (RBC) + Liver: Alanine Aminotransferase (ALT), Blood + Liver: …): 149 mg/m3
- LEL [6]: 75 mg/kg-day
- NEL [6]: 25 mg/kg-day
- LOAEL (subchronic, duration: 90 days, oral, gavage, F, Crl:CD(SD), Cardiovascular: Heart: Heart Weight, Absolute + Cardiovascular: Heart: Heart Weight, Relative + Endocrine: Adrenal: Adrenal Gland Weight, …): 25 mg/kg-day
- LOAEL [12]: 125 mg/kg-day
- NOAEL [12]: 25 mg/kg-day
- LOAEL [13]: 25 mg/kg-day
- NOAEL [13]: 5 mg/kg-day
- LOAEL [15]: 250 mg/kg-day
- NOAEL [15]: 125 mg/kg-day
- LOAEL [17]: 25 mg/kg-day
- NOAEL [17]: 5 mg/kg-day
- NOAEL (subchronic, duration: 90 days, oral, gavage, F, Sprague-Dawley, Other Systems: Tooth: Tooth Discoloration + Other Systems: Tooth: Tooth Discoloration, Recovery + Other Systems: Tooth: Tooth Findings, …): 250 mg/kg-day
- LOAEL (subchronic, duration: 90 days, oral, gavage, M, Crl:CD(SD), Cardiovascular: Heart: Heart Weight, Absolute + Cardiovascular: Heart: Heart Weight, Relative + Endocrine: Adrenal: Adrenal Gland Weight, …): 25 mg/kg-day
- LOAEL [24]: 125 mg/kg-day
- NOAEL [24]: 25 mg/kg-day
- LOAEL [25]: 25 mg/kg-day
- NOAEL [25]: 5 mg/kg-day
- LOAEL (subchronic, duration: 90 days, oral, gavage, M, Crl:CD(SD), Immune: Blood: Basophils + Immune: Blood: Eosinophils + Immune: Blood: Lymphocyte + Immune: Blood: Monocytes + Immune: Blood: Neutrophils + …): 250 mg/kg-day
- LOAEL (subchronic, duration: 90 days, oral, gavage, M, Crl:CD(SD), Other Systems: Eye: Ophthalmology + Other Systems: Nasal Cavity: Nasal Cavity/Tubinates Inflammation, Chronic, Focal/Multifocal + Other …): 125 mg/kg-day and 250 mg/kg-day
- LOAEL (subchronic, duration: 90 days, oral, gavage, M, Crl:CD(SD), Reproductive: Epididymis: Epididymis Weight, Absolute + Reproductive: Epididymis: Epididymis Weight, Relative + Reproductive: Testis: Testis…): 5 mg/kg-day
- LOAEL [26]: 25 mg/kg-day
- NOAEL [26]: 5 mg/kg-day
- NOAEL (subchronic, duration: 90 days, oral, gavage, M, Sprague-Dawley, Other Systems: Blood: Potassium (K) + Other Systems: Tooth: Tooth Discoloration + Other Systems: Tooth: Tooth Discoloration, Recovery + …): 250 mg/kg-day
